This is an account of results in PMC4490394 (Scientific Reports, 2015).

Substitutions are numbered along the chain they refer to. Where “and” joins values, the source holds several entries; their conditions need not be identical. Equal entries are not always repeated. Where two headings read alike, the source gives them in different places.

Series [1] relates to VCaP cells. Put plainly: VCaP proliferation assay (WST-1). It is filed as cell-based. The note with it: Homo sapiens, 96 h. On the technique in general: Formazan colour is commonly taken as a measure of viable cells.
A short description of series [2]: Brain penetrance, brain/plasma ratio from AUC0-24. It is filed as in vivo. As to conditions: male, BALB/c or Balb/cOlaHsd nude, mouse, mice, single oral dose of 10 mg/kg, based on AUC0–24.
Series [3] addresses T1, AR(F876L) (Homo sapiens, UniProt P10275, F877L).
T1 sequence (P10275 1-920 F877L): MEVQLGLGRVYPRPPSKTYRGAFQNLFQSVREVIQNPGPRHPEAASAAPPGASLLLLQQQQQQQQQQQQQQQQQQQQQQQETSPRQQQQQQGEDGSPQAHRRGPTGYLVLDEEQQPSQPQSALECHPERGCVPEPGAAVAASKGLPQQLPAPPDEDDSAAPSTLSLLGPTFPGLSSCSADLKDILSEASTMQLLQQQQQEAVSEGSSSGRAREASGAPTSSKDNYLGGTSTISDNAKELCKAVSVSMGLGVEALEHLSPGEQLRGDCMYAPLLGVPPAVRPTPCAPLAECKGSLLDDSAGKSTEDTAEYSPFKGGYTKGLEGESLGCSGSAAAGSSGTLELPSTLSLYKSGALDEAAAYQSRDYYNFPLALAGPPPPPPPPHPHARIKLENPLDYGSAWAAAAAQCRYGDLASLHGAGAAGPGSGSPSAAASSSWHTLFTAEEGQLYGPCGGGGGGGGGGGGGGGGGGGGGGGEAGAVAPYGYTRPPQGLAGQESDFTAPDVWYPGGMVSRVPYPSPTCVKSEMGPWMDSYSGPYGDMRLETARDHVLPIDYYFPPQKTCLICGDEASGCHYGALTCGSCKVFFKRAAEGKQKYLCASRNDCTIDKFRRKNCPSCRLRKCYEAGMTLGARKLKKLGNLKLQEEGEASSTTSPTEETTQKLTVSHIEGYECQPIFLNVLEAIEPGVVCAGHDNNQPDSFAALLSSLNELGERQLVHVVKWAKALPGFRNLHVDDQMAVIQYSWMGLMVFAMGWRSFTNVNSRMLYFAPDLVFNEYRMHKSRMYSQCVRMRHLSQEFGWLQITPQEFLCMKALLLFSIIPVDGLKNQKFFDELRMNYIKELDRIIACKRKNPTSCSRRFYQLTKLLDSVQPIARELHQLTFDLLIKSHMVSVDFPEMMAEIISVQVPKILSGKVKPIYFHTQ

In series [4] the target is T2, AR(W741L) (Homo sapiens, UniProt P10275, W742L).
T2 sequence (P10275 1-920 W742L): T1 sequence (P10275 1-920 F877L) with W742L, L877F

For series [5], the target named is T3, AR(T877A) (Homo sapiens, UniProt P10275, T878A).
T3 sequence (P10275 1-920 T878A): T1 sequence (P10275 1-920 F877L) with L877F, T878A

For series [6], the system named is AR nuclear translocation in HS-HEK293 cells. The note with it: 0.3 or 1.0 μM test compound with 0.3 nM testosterone, HS-HEK293 cells.
Details of series [7]: method as in PMID 15470213. The note with it: CRPC ref 7; cited from earlier work.
Series [8] has as its system subcutaneous VCaP tumors. Put plainly: Castration-resistant VCaP xenograft, tumor volume. It is filed as in vivo, castrated nude mice.
The nature of series [9]: Pharmacokinetic parameters in mice after 7 days oral dosing. As to conditions: male, BALB/c or Balb/cOlaHsd nude, mouse, plasma, 20 mg/kg qd oral, read-out: AUC24. It is filed as in vivo. Here is the method: Control mice received vehicle. […] Brain samples (without olfactory bulbs and medulla oblongata) from each group and time point were pooled and homogenized before the analysis. […] Plasma and brain concentration vs. time were evaluated by noncompartmental analysis using WinNonlin® Professional v. 5.2 software (Pharsight Corporation). Brain/plasma ratios were calculated based on AUC0–24 values for plasma and brain.

Series [10] has as its system serum testosterone. Put plainly: Serum testosterone in intact nude mice bearing orthotopic VCaP tumors. It is filed as in vivo. The note with it: 20 mg/kg qd oral, 3 weeks, p < 0.05 vs vehicle. Here is the method:
One million VCaP cells in 20 μL of RPMI-1640 medium were orthotopically injected into the dorsal prostate lobes of athymic nude male mice (7 weeks old from Harlan Winkelman, France). Tumor growth was followed by measuring serum PSA (ProStatus™ PSA EQM Kits, Wallac, Finland). […] At autopsy, blood samples were collected by heart puncture, clotted overnight at +4 °C, and centrifuged. For serum testosterone determination, 25-μL aliquots were extracted twice with 2 mL of diethyl ether and evaporated under nitrogen to dryness. The residues were reconstituted in PBS and measured using a standard radioimmunoassay as described previously.

Series [11] can be described thus: Body weight of mice bearing subcutaneous VCaP xenograft tumors. Type of series: in vivo, castrated nude mice. The note with it: enzalutamide 20 mg/kg qd oral, individual animals, vs BW before treatment. As for the experimental part: BALB/c nude male mice (7 weeks old from Charles River, Germany) were subcutaneously injected with 2 million VCaP cells in 100 μL of RPMI-1640 medium and Matrigel (BD) (1:1). Tumor growth was monitored twice weekly by caliper measurements. The volume of the tumor was calculated according to the formula W^2 × L/2 (mm^3), where W is the shorter and L the longer diameter of the tumor. When the average tumor volume reached ~200 mm^3, mice were castrated or SHAM-operated under Avertin anesthesia. […] For all in vivo studies, Macrocol® (Merck) + propylene glycol +5% glucose (50:30:20, v/v/v) was used as a vehicle.

What is called Kp is the ratio of the level in a tissue or fluid to that in plasma or blood. Consider `CNC(=O)c1ccc(N2C(=S)N(c3cnc(C#N)c(C(F)(F)F)c3)C(=O)C23CCC3)cc1F` [ARN-509, reference compound], for which the IC50 in series [1] (read-out: IC50, androgen-induced VCaP cell proliferation) amounted to 420 nM. Further, the Kp in [2] was determined as 0.62.
Regarding `CC(=O)c1cc(C(=O)N[C@@H](C)Cn2ccc(-c3ccc(C#N)c(Cl)c3)n2)n[nH]1` [ORM-15341], in series [1] (0.1 nM mibolerone, steroid-depleted medium, 4 days, WST-1, read-out: IC50, androgen-induced VCaP cell proliferation), the IC50 turned out to be 170 nM. The “functional activity (agonist/antagonist) on AR(F876L)” value in series [3] is “full antagonists”. Also, the “functional activity (agonist/antagonist) on AR(W741L)” value in series [4] is “full antagonists”. Further, the “functional activity (agonist/antagonist) on AR(T877A)” value in [5] is “full antagonists”. In addition, the “effect on testosterone-induced nuclear translocation of AR” value in series [6] is “inhibit”.
`CC(=O)O[C@@]12CO[C@@H]1C[C@H](O)[C@@]1(C)C(=O)[C@H](O)C3=C(C)[C@@H](OC(=O)[C@H](O)[C@@H](NC(=O)OC(C)(C)C)c4ccccc4)C[C@@](O)([C@@H](OC(=O)c4ccccc4)[C@H]21)C3(C)C` [docetaxel]: the “median prolongation of survival” value in series [7] is listed as 2.9 months.
Turning to `CNC(=O)c1ccc(N2C(=S)N(c3ccc(C#N)c(C(F)(F)F)c3)C(=O)C2(C)C)cc1F` [Enzalutamide, enzalutamide, reference compound], the “antitumor activity (tumor volume)” value in series [8] (20 mg/kg oral once daily, 37 days, p < 0.05 vs castrated untreated mice) was “inhibition of tumor growth”. Besides, the AUC in [9] turned out to be 479 µg·h/mL. Besides, in series [10], the “effect on serum testosterone levels” value is given as “increased significantly”. For the same compound, in [11], the “Change in body weight (%) d 3” value is 0.0% (2×) and -6.2% and -2.7% and -0.6% and -0.5% and -2.0% and 1.3% and 0.5%; the “Change in body weight (%) d 9” value was 0.4% and 1.7% (2×) and 3.6% and 0.6% and 1.3% and 2.9% and 1.5% and 0.5%; the “Change in body weight (%) d 16” value was 1.8% (2×) and 1.2% and 3.0% and 2.6% and 6.8% and 5.6% and 5.5% and 8.7%; the “Change in body weight (%) d 23” value was 1.0% and -4.8% and -1.4% and 1.8% and -2.2% and -0.9% and -2.9% and -3.0%. In addition, in series [11], the “Change in body weight (%) d 30” value was 2.1% and -4.0% and -2.7% and 3.0% and 0.9% and 1.9% and -2.0% and -0.9%; the “Change in body weight (%) d 37” value is 5.1% and -0.9% and 0.5% (2×) and 3.6% and 3.5% and 7.2% and 1.3%.
On to `CC(O)(CS(=O)(=O)c1ccc(F)cc1)C(=O)Nc1ccc(C#N)c(C(F)(F)F)c1` (stereo not shown) [bicalutamide, reference compound], for which the antitumor activity result in series [8] (20 mg/kg per os, data not shown) is “does not have any antitumor activity”. Moreover, the “effect on testosterone-induced nuclear translocation of AR” value in [6] was “failed to block”.
